These results are taken from ChEMBL document CHEMBL1201862, “PubChem BioAssay data set” (2004).

In test [1] the target is T1, Protein disulfide-isomerase (Homo sapiens, UniProt P07237). Description: PDI inhibitors, insulin aggregation turbidity, dose response, biochemical, absorbance, cherry-picked samples (AID 602350). The format is functional.
Test [2] addresses T1, Protein disulfide-isomerase. Description: PDI inhibitors, insulin turbidity readout, dose response, biochemical, absorbance, cherry-picked samples, set 2 (AID 624274). The format is functional.
For test [3], the target named is Cell division cycle 7-related protein kinase (Homo sapiens, UniProt O00311). The format is functional.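 Note: value obtained from a kinome-wide kinase panel.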
Test [4] has as its target Glycogen synthase kinase-3 beta (Homo sapiens, UniProt P49841). The format is functional.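 Note: value comes from a broad kinome profiling panel, with GSK3B as the panel member.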
In test [5] the target is Homeodomain-interacting protein kinase 2 (Homo sapiens, UniProt Q9H2X6). The format is functional.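 Note: measured within a kinome-wide kinase profiling panel, HIPK2 being one panel member.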
Test [6] concerns the target Interleukin-1 receptor-associated kinase 4 (Homo sapiens, UniProt Q9NWZ3). The format is functional.
The target in test [7] is Mitogen-activated protein kinase kinase kinase kinase 4 (Homo sapiens, UniProt O95819). The format is functional.
Test [8] deals with Dual specificity protein kinase CLK4 (Homo sapiens, UniProt Q9HAZ1). The format is functional.
The target of test [9] is Dual specificity tyrosine-phosphorylation-regulated kinase 1A (Rattus norvegicus, UniProt Q63470). The format is biochemical, Homo sapiens.
Test [10] has as its target T2, Alkaline phosphatase, tissue-nonspecific isozyme (Homo sapiens, UniProt P05186).
T2 sequence (P05186 whole entry): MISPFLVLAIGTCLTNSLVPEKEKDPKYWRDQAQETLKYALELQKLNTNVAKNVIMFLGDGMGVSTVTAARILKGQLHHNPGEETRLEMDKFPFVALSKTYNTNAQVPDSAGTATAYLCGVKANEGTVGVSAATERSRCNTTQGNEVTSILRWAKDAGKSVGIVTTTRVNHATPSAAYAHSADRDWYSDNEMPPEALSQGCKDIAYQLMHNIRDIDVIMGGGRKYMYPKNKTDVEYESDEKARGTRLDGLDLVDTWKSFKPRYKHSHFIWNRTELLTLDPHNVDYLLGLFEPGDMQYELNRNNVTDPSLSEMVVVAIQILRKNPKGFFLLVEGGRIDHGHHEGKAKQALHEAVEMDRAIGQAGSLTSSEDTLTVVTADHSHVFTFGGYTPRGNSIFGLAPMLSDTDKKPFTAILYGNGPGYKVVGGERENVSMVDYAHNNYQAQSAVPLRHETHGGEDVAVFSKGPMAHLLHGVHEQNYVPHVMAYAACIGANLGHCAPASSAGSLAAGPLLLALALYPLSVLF
Description: TNAP enzyme inhibition by screening hits, dose response, selectivity assay for mouse IAP inhibitor project, biochemical, human TNAP, uHTS hits (AID 488906). The format is functional.

Test [11] has as its target Induced myeloid leukemia cell differentiation protein Mcl-1 (Homo sapiens, UniProt Q07820). The format is functional.
The target of test [12] is T3, Rac GTPase-activating protein 1 (Homo sapiens, UniProt Q9H0H5).
T3 sequence (Q9H0H5 whole entry): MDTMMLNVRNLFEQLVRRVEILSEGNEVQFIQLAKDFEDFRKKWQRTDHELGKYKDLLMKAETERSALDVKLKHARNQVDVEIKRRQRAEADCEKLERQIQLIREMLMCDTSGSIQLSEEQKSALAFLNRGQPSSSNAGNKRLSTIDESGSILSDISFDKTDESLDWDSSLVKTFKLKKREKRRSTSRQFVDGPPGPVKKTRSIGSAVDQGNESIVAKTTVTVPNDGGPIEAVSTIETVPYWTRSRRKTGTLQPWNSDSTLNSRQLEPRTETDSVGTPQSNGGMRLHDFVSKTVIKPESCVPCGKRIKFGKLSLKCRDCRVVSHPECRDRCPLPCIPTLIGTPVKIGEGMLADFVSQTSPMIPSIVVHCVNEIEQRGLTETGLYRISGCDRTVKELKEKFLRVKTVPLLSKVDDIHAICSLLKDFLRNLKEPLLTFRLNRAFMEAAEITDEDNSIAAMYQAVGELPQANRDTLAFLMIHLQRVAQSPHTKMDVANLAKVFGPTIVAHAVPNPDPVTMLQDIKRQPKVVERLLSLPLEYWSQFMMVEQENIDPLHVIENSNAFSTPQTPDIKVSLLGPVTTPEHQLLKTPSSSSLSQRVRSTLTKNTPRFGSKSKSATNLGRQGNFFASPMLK
The test is described as follows: MgcRacGAP GTPase-activating activity inhibitors, confirmation, biochemical, ADP Hunter fluorescence, primary and confirmatory (AID 624330). The format is functional.

For test [13], the target named is Intestinal-type alkaline phosphatase (Homo sapiens, UniProt P09923). Description: inhibition of human intestinal alkaline phosphatase – biochemical, dose response (AID 488876). The format is functional.
In test [14] the target is Prothrombin (Bos taurus, UniProt P00735). The test is described as follows: thrombin inhibition, dose response, biochemical, fluorescence polarization, uHTS hits (AID 602369). The format is functional.
Test [15] addresses Intestinal-type alkaline phosphatase (Mus musculus, UniProt P24822). The test is described as follows: PubChem AID 488785. The format is functional.
Test [16] has as its target 72 kDa type IV collagenase (Homo sapiens, UniProt P08253). The test is described as follows: Dose Response validation of uHTS RPN11 inhibitor hits using a MMP-2 Fluorescence assay. The format is functional.
The target in test [17] is 26S proteasome non-ATPase regulatory subunit 14 (Homo sapiens, UniProt O00487). The test is described as follows: inhibition of proteasome subunit RPN11 – biochemical, fluorescence polarization, uHTS hits, confirmation (AID 602368). The format is functional.
The target of test [18] is Multidrug resistance protein CDR2 (Candida albicans (strain SC5314 / ATCC MYA-2876) (Yeast), UniProt P78595). The test is described as follows: CaCDR2 efflux pump inhibitors in yeast, dose response, S. cerevisiae AD1-8u, singleplex, Cherry Pick1 hits (AID 588604). The format is functional.

Molecules are shown by their SMILES. The source made the active and inactive calls. Where only a bound is given, the exact number is not on record here.

T1 sequence (P07237 whole entry): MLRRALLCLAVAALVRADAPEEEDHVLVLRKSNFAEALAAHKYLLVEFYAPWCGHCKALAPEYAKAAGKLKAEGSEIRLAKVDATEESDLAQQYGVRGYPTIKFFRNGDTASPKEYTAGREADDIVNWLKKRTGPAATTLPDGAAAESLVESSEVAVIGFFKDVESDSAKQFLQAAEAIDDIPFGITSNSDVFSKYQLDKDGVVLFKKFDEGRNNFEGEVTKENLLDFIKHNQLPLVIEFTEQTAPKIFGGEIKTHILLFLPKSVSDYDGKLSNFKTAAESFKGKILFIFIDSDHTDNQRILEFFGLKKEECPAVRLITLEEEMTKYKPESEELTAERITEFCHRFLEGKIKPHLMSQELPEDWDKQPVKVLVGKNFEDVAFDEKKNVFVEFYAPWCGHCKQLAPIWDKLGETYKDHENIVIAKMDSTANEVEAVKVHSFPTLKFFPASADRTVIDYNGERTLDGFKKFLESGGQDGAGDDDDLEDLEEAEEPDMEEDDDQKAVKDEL
Interleukin-1 receptor-associated kinase 4, sequence (Q9NWZ3 whole entry): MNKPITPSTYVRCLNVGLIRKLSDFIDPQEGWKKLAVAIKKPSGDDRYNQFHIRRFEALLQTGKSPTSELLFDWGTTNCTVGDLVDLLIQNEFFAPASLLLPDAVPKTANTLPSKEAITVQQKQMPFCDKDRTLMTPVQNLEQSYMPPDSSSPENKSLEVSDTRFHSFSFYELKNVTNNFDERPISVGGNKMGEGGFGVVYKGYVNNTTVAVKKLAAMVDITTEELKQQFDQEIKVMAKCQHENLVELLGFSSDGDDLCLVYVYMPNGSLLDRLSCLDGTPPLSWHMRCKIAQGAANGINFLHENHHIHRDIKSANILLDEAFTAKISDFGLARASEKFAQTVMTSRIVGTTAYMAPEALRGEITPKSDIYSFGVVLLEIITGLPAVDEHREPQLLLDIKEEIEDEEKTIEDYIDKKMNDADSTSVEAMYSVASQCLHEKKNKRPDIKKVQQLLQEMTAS
72 kDa type IV collagenase, sequence (P08253 whole entry): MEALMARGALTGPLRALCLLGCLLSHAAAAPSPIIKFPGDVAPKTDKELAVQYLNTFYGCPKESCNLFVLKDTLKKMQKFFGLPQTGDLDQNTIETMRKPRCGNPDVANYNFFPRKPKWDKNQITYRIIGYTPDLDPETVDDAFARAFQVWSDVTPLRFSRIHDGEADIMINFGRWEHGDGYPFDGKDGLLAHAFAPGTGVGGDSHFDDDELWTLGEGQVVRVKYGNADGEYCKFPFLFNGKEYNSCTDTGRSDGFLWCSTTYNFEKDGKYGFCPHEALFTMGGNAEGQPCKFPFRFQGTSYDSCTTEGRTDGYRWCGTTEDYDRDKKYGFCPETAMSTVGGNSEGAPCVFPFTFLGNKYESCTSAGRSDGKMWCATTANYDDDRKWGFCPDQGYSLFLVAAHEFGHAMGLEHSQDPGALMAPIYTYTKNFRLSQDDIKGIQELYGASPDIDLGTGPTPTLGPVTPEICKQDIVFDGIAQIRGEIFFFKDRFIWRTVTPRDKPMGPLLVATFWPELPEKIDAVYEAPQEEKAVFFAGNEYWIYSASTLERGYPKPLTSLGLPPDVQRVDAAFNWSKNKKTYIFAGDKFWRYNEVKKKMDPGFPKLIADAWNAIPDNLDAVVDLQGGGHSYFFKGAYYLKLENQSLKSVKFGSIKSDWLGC
Multidrug resistance protein CDR2, sequence (P78595 whole entry): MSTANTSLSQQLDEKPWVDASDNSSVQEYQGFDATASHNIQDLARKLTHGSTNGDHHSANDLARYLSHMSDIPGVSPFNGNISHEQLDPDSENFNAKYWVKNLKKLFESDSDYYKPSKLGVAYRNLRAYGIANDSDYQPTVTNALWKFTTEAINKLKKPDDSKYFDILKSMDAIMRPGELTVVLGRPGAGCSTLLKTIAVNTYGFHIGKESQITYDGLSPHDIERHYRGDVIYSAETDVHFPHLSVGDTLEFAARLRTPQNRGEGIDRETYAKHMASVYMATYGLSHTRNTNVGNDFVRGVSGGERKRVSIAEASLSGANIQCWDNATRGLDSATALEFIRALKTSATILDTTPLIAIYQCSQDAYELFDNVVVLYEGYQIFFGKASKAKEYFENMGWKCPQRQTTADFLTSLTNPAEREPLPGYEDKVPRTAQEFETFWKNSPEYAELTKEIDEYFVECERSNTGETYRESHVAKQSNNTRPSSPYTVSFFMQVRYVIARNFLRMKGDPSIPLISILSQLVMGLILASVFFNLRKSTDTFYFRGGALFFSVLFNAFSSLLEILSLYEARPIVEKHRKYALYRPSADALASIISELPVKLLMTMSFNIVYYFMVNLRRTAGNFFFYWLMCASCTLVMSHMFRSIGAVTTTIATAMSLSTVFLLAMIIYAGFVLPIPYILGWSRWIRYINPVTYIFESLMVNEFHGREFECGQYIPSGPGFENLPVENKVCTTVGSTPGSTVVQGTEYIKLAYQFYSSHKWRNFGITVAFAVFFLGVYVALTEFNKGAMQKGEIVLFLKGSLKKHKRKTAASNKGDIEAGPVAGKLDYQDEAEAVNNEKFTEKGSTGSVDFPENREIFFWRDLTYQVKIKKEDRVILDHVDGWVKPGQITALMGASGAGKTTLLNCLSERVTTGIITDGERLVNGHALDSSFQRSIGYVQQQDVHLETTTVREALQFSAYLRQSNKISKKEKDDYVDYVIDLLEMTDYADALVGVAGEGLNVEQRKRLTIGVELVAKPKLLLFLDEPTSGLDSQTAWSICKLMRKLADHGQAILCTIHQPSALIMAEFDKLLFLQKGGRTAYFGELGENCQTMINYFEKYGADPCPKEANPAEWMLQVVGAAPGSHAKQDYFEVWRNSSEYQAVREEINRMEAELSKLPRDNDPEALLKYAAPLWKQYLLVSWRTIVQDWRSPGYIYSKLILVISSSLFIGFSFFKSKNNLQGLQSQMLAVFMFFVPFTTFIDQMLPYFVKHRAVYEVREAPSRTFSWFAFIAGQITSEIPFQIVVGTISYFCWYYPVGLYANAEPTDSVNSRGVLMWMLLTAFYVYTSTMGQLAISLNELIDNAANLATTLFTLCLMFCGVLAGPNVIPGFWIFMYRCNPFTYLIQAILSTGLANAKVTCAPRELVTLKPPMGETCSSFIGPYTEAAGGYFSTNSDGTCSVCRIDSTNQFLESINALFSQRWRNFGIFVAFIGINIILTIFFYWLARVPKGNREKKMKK
26S proteasome non-ATPase regulatory subunit 14, sequence (O00487 whole entry): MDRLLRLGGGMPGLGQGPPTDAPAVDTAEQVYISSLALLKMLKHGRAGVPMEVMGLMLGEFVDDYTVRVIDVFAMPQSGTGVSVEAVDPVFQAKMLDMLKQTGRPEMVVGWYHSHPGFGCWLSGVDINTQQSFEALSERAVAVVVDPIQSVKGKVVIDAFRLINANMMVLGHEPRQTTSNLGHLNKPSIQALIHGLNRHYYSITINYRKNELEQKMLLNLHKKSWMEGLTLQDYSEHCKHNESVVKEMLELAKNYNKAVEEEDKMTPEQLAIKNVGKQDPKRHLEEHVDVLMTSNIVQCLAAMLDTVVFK
Homeodomain-interacting protein kinase 2, sequence (Q9H2X6 whole entry): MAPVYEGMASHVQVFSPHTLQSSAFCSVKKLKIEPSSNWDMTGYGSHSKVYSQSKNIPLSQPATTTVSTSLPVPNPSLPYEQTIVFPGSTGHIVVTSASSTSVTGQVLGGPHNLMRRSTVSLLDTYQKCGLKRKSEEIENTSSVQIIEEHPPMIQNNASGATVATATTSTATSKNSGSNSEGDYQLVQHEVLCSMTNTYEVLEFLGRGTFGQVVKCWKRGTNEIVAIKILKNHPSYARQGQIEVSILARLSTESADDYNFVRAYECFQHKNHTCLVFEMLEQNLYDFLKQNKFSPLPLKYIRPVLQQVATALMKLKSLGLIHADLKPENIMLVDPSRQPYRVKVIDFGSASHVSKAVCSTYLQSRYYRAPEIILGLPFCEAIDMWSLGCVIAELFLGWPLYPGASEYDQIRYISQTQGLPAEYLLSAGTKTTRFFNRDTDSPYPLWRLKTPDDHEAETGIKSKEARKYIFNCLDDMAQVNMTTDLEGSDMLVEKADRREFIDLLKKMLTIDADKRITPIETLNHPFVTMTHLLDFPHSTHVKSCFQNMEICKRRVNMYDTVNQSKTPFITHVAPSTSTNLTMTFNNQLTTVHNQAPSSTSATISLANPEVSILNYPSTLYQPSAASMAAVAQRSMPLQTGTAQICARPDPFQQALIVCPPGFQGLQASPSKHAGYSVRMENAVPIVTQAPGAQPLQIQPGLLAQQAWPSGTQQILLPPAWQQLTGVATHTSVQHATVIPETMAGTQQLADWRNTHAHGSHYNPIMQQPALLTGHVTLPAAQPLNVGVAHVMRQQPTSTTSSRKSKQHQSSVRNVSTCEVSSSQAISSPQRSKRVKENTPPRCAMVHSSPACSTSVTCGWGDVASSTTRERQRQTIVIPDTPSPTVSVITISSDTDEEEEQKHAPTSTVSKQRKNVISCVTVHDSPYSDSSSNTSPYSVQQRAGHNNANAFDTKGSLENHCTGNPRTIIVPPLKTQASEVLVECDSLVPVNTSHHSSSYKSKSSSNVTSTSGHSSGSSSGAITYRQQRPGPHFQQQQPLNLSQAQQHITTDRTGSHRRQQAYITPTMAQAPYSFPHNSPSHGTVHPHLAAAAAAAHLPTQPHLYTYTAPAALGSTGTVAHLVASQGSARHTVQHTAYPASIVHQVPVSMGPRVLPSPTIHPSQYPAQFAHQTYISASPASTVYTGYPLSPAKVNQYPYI
Induced myeloid leukemia cell differentiation protein Mcl-1, sequence (Q07820 whole entry): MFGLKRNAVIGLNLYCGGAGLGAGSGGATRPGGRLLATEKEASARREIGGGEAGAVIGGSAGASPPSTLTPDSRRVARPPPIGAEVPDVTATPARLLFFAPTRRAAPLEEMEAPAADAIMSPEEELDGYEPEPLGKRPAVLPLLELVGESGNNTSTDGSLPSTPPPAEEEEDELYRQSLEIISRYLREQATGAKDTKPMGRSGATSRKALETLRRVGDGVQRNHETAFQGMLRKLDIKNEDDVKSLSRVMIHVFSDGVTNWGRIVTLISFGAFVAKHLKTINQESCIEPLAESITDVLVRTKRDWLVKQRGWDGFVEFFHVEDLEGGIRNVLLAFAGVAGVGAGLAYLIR

The term AC50 denotes the concentration at which the activity in the assay is half-maximal. In the case of `CC(NCC(O)COCc1ccc(Cl)cc1)c1ccccc1` (stereo not drawn), the AC50 in [1] was < 9 nM (active); in test [2], 9 nM (active).

Usually Ki stands for the dissociation constant of the complex between target and ligand, obtained from inhibition or displacement. As for `CN(C)CCCOc1cc(-c2ccncc2)cc2[nH]nc(N)c12`, the Ki was 12.6 nM (active) in [3]; 6310 nM (active) in test [4]; > 3160 nM (inactive) in test [5]; 158 nM (active) in test [6]; 794 nM (active) in test [7]; 79.4 nM (active) in [8].

For orientation: IC50 means the concentration that gives 50% inhibition. For orientation: EC50 means the midpoint of the concentration-response curve. Regarding `O=C1/C(=C/c2ccc(O)c(O)c2)Oc2cc(O)ccc21` [SULFURETIN], the AC50 in test [9] was 2320 nM (active). For the same compound, the IC50 in test [10] was 52900 nM (active); in test [11], 1530 nM (active); in test [12] it was 20600 nM (active); in test [13] it was 66300 nM (active); in [14], 21700 nM (active); in test [15], 19700 nM (active). Besides, the figures for the IC50 in [16] and in [17] were > 100000 nM (inactive) and 23800 nM (active), respectively. Also, the EC50 in test [18] was 424 nM (active).
